Article PMC11259170, “Small-molecule probe for IBD risk variant GPR65 I231L alters cytokine signaling networks through positive allosteric modulation” (Science Advances, 2024)
Like-named read-outs stand apart in the source and are kept apart here.

Tests used:
hGPR65 = target: T1, hGPR65 (Homo sapiens, UniProt Q8IYL9); assay: cAMP detection in HeLa expression cell line, hGPR65; assay type: cell-based; conditions: for Emax: HeLa, read-out: hGPR Max Activity %; for EC50: SAR cAMP assay, read-out: hGPR EC50
T1 construct: expressed in transfected cells; host or cells: HeLa (ATCC CCL-2), lentiviral transduction, pLX317
How it was run: (§1)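 Compound was dispensed from a 10 mM DMSO stock, and puromycin-selected HeLa lines carrying lentiviral V5-tagged receptor were added at 1500 cells/well in pH 7.2 stimulation buffer. After 30 min stimulation at room temperature, cells were lysed and detection ran 1 h in the dark before cAMP TR-FRET reading.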

[1] = Comment on solubility in SAR table; assay type: physicochemical
Text: Supplement sciadv.adn2339_data_s1_to_s4.zip/sciadv.adn2339_data_s2.xlsx, sheet "SAR cAMP Assay"

mGPR65 = target: T2, mGPR65 (Mus musculus, UniProt Q61038); assay: cAMP detection in HeLa expression cell line, mGPR65; assay type: cell-based
T2 construct: expressed in transfected cells; host or cells: HeLa (ATCC CCL-2), lentiviral transduction, pLX317
How it was run: as §1

[2] = tested on: GFP-expressing HeLa cells; assay: cAMP detection in HeLa expression cell line, GFP control; assay type: cell-based, human; conditions: for EC50: SAR cAMP assay
How it was run: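 HeLa cells stably expressing C-terminally V5-tagged receptor or GFP (lentiviral, puromycin 3 μg/ml) stimulated at 1500 cells per well for 30 min at RT with compound (10 mM DMSO stock) in stimulation buffer at pH 7.2. cAMP detected by Lance Ultra TR-FRET after lysis and 1 h detection, excitation 337 nm, emission 620/665 nm.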

[3] = first pair, relative to 100uM forskolin (100%) and DMSO (0%)
[4] = first EC50/Max pair of hGPR columns
[5] = third pair, relative to 100uM forskolin (100%) and DMSO (0%)

T1 sequence (Q8IYL9 whole entry): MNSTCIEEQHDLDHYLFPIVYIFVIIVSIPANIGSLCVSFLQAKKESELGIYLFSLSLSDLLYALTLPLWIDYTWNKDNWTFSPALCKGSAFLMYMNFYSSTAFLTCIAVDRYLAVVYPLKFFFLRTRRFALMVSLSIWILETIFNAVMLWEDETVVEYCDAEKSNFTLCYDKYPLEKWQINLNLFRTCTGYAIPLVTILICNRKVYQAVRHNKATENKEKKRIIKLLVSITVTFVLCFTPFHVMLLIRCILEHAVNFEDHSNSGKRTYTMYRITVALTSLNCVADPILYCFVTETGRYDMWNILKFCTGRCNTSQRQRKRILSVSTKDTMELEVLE
T2 sequence (Q61038 whole entry): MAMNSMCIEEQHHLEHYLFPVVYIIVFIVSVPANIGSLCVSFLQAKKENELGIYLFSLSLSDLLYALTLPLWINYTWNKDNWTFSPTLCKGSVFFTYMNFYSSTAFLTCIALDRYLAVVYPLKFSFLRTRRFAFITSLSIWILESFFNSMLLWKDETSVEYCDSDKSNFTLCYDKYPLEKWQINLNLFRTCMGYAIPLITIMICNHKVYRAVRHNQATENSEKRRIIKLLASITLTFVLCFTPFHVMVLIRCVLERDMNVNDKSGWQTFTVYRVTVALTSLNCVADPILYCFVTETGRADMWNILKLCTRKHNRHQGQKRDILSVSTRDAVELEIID

Compound	Emax (hGPR65; [3]) [%]	EC50 (hGPR65; [4]) [µM]	Comments (solubility) [1]	Emax (hGPR65; second pair, relative to 100uM forskolin (100%) and DMSO (0%)) [%]	EC50 (hGPR65; second EC50/Max pair of hGPR columns) [µM]	EC50 (hGPR65; third EC50/Max pair of hGPR columns) [µM]	hGPR Max Activity (hGPR65; [5]) [%]	EC50 (mGPR65; SAR cAMP assay, third EC50/Max pair of mGPR columns, read-out: mGPR EC50) [µM]	mGPR Max Activity (mGPR65; [5]) [%]	EC50 ([2]; Homo sapiens, HeLa, second EC50/Max pair of GFP control columns) [µM]	EC50 ([2]; Homo sapiens, HeLa, third EC50/Max pair of GFP control columns) [µM]	Emax ([2]; Homo sapiens, HeLa, second pair, relative to 100uM forskolin (100%) and DMSO (0%), read-out: GFP Max Activity %) [%]	GFP Max Activity [2, 5] [%]
Cc1ccc(NC(=O)c2cnn3c(O)cc(-c4ccc(-c5ccncc5)cc4)nc23)cc1 [BRD0844]	30.3	7.97	Poor solubility.										
Cc1ccc(NC(=O)c2cnn3c(O)cc(-c4ccc(-c5cccc(C(C)C)c5)cc4)nc23)cc1 [BRD4922]	47.3	3.82	Poor solubility.	51.9	1.42	0.688	55.72	0.9	35.02	2.44	6.47	0.205	1.632
